Read-outs that look alike come from different tables or passages of the source. Starred links: 1 amine or outer side, 2 acyl side, 3 side chain; linkers in the order of their positions; H or OH if unused. Positions of bridges follow the written chain, without caps; N, C: chain ends. Non-standard residues stand in square brackets, D forms with d. Residues, ends and D or L forms follow the SMILES beside them. ξ: configuration not given here. X2 = CCOc1ccc(-c2[nH]c3ccccc3c2C[C@H](N[*:1])C(=O)[*:2])cc1; Phe(3,4,5-F3) = N[C@@H](Cc1cc(F)c(F)c(F)c1)C(=O)O; Phe(4-CH2NH2) = NCc1ccc(C[C@H](N)C(=O)O)cc1; Pro(trans-4-F) = O=C(O)[C@@H]1C[C@@H](F)CN1; Phe(3-CN) = N#Cc1cccc(C[C@H](N)C(=O)O)c1; d(cisHyp) = O=C(O)[C@H]1C[C@@H](O)CN1; Bta = N[C@@H](Cc1csc2ccccc12)C(=O)O; Hyp = O=C(O)[C@@H]1C[C@@H](O)CN1; NMeF = CN[C@@H](Cc1ccccc1)C(=O)O; X4 = O=C([C@H]1COCCN1[*:1])[*:2]; NMeNle = CCCC[C@H](NC)C(=O)O; NMeM = CN[C@@H](CCSC)C(=O)O; NMeS = CN[C@@H](CO)C(=O)O; ξR = N=C(N)NCCCC(N)C(=O)O; NMeA = CN[C@@H](C)C(=O)O; Orn = NCCC[C@H](N)C(=O)O; Dab = NCC[C@H](N)C(=O)O; Dap = NC[C@H](N)C(=O)O; ξC = NC(CS)C(=O)O; Sar = CNCC(=O)O
Key:
[1] = biological target: T1, LK35.2-hPD-L1 cells / PE-labeled PD-1-Ig (Homo sapiens, UniProt Q9NZQ7); assay: LK35.2-hPD-L1 cell binding high-content screening assay; format: cell-based; conditions: cluster symbol, read-out: CBA IC50 cluster
T1 construct: expressed in transfected cells; host or cells: LK35.2 mouse B cell line
T1 sequence (Q9NZQ7 19-290): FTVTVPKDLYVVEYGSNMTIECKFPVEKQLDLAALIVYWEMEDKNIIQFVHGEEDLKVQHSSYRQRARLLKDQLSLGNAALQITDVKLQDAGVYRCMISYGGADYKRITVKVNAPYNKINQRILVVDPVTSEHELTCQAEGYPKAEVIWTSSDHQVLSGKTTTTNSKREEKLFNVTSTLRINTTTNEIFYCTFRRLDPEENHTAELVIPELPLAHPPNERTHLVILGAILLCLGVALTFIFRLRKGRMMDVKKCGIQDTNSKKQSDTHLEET
How it was run: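 Using overnight-cultured LK35.2-hPD-L1 mouse B cells, compound was co-incubated with phycoerythrin-tagged human PD-1-Ig (final 1 nM) at 37 °C for one hour. Unbound label was removed by triple dPBS washing prior to high-content image acquisition and analysis.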

Human PD-L1/PD-1 = biological target: T2, Human PD-L1/PD-1 (Homo sapiens, UniProt Q9NZQ7); assay: HTRF PD-1-Ig/PD-L1-His binding assay (human PD-L1); conditions: cluster symbol; read-out: HTRF IC50 cluster
T2 construct: made in house; host or cells: HEK293T
T2 sequence (Q9NZQ7 with tags, fused parts or gaps): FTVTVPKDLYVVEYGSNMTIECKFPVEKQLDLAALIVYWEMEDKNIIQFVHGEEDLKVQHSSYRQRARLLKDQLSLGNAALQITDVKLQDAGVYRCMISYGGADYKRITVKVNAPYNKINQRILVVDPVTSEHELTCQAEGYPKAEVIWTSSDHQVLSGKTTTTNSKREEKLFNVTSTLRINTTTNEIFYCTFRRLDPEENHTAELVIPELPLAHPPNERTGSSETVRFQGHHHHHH
How it was run: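 The time-resolved fluorescence signal comes from Eu-cryptate anti-Ig (1 nM) and APC anti-His (20 nM) antibodies bound to a PD-1-Ig/PD-L1-His complex. Both partners lack transmembrane regions.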

[2] = cell line of CBA not given (LK35.2-hPD-L1 or 293T-hPD-L1)
[3] = cell binding assay, cell line not given

SMILES	IC50 [1, 2] [nM]	IC50 (Human PD-L1/PD-1) [nM]	IC50 [1, 3] [nM]
CCCC[C@H]1C(=O)N(C)CC(=O)N[C@@H](CC(=O)O)C(=O)N[C@@H](C(C)C)C(=O)N(C)[C@@H](Cc2ccccc2)C(=O)N[C@@H](Cc2ccc(O)cc2)C(=O)N(C)CC(=O)N[C@@H](Cc2c[nH]c3ccccc23)C(=O)N[C@@H](Cc2ccc(O)cc2)C(=O)N[C@@H](CC(C)C)C(=O)N[C@H](C(=O)NCC(N)=O)CSCC(=O)N[C@@H](Cc2ccccc2)C(=O)N1C [Example 3053] (HELM PEPTIDE1{[O=C(C[*:3])[*:2]].F.[CCCC[C@@H](C(=O)[*:2])N(C)[*:1]].[Sar].D.V.[meF].Y.[Sar].W.Y.L.C.G.[am]}$PEPTIDE1,PEPTIDE1,1:R3-13:R3$$$V2.0)	> 74.3	> 30.5	
CCCC[C@H]1C(=O)N(C)[C@@H](CCCC)C(=O)N[C@@H](C)C(=O)N[C@H](C(=O)NCC(N)=O)CSCC(=O)N[C@@H](Cc2ccc(O)cc2)C(=O)N(C)[C@@H](C)C(=O)N[C@@H](CC(=O)O)C(=O)N2CCC[C@H]2C(=O)N[C@@H](Cc2cnc[nH]2)C(=O)N[C@@H](CCCNC(C)=O)C(=O)N2C[C@H](O)C[C@H]2C(=O)N[C@@H](Cc2c[nH]c3ccccc23)C(=O)N[C@@H](CO)C(=O)N[C@@H](Cc2c[nH]c3ccccc23)C(=O)N1C [Example 1156] ({CH2CO}-Y[NMeA]DPH[Orn](Ac)[Hyp]WSW[NMeNle][NMeNle]ACG-NH2; thioether N-14)	0.158 to 4.71	0.385 to 6.74	
CCCC[C@H]1C(=O)N(C)CC(=O)N[C@@H](CC(=O)O)C(=O)N[C@@H](C(C)C)C(=O)N(C)[C@@H](Cc2ccccc2)C(=O)N[C@@H](Cc2ccc(O)cc2)C(=O)N(C)CC(=O)N[C@@H](Cc2c[nH]c3ccccc23)C(=O)N(C)[C@@H](Cc2ccc(O)cc2)C(=O)N[C@@H](CC(C)C)C(=O)N[C@H](C(=O)NCC(N)=O)CSCC(=O)N[C@@H](Cc2ccccc2)C(=O)N(C)[C@@H](Cc2ccccc2)C(=O)N1C [Example 3566] (HELM PEPTIDE1{[O=C(C[*:3])[*:2]].F.[meF].[CCCC[C@@H](C(=O)[*:2])N(C)[*:1]].[Sar].D.V.[meF].Y.[Sar].W.[meY].L.C.G.[am]}$PEPTIDE1,PEPTIDE1,1:R3-14:R3$$$V2.0)		> 30.5	> 74.3
CCCC[C@H]1C(=O)N(C)CC(=O)N[C@@H](CC(=O)O)C(=O)N[C@@H](C(C)C)C(=O)N(C)[C@@H](Cc2ccccc2)C(=O)N[C@@H](Cc2ccc(O)cc2)C(=O)N(C)CC(=O)N[C@@H](Cc2c[nH]c3ccccc23)C(=O)N[C@@H](Cc2ccc(O)cc2)C(=O)N[C@@H](CC(C)C)C(=O)N[C@H](C(=O)NCC(N)=O)CSCC(=O)N[C@@H](Cc2ccc(CN)cc2)C(=O)N(C)[C@@H](Cc2ccccc2)C(=O)N1C [Example 3063] ({CH2CO}-[Phe(4-CH2NH2)][NMeF][NMeNle][Sar]DV[NMeF]Y[Sar]WYLCG-NH2; thioether N-13)	> 74.3	> 30.5	
CCCC[C@H]1C(=O)N(C)[C@@H](CCCC)C(=O)N[C@@H](CC(C)C)C(=O)N[C@H](C(=O)NCC(N)=O)CSCC(=O)N[C@@H](Cc2ccc(O)cc2)C(=O)N(C)[C@@H](C)C(=O)N[C@@H](CC(N)=O)C(=O)N2CCC[C@H]2C(=O)N[C@@H](CO)C(=O)N[C@@H](CCC(=O)O)C(=O)N2C[C@H](O)C[C@H]2C(=O)N[C@@H](Cc2c[nH]c3ccccc23)C(=O)N[C@@H](CCN)C(=O)N[C@@H](Cc2c[nH]c3ccccc23)C(=O)N1C [Example 5074] ({CH2CO}-Y[NMeA]NPSE[Hyp]W[Dab]W[NMeNle][NMeNle]LCG-NH2; thioether N-14)		0.385 to 6.74	0.158 to 4.71
CCCC[C@H]1C(=O)N(C)[C@@H](CCCC)C(=O)N[C@@H](CCCNC(=N)N)C(=O)N[C@H](C(=O)NCC(N)=O)CSCC(=O)N[C@@H](Cc2cccc(C#N)c2)C(=O)N(C)[C@@H](C)C(=O)N[C@@H](CC(N)=O)C(=O)N2CCC[C@H]2C(=O)N[C@@H](Cc2cnc[nH]2)C(=O)N[C@@H](CC(C)C)C(=O)N2C[C@H](O)C[C@H]2C(=O)N[C@@H](Cc2c[nH]c3ccccc23)C(=O)N[C@@H](CO)C(=O)N[C@@H](Cc2c[nH]c3ccccc23)C(=O)N1C [Example 7058] ({CH2CO}-[Phe(3-CN)][NMeA]NPHL[Hyp]WSW[NMeNle][NMeNle]RCG-NH2; thioether N-14)		6.76 to 30.3	> 74.3
CCCC[C@H]1C(=O)N(C)[C@@H](CCCC)C(=O)N[C@@H](CN)C(=O)N[C@H](C(=O)NCC(N)=O)CSCC(=O)N[C@@H](Cc2ccc(O)cc2)C(=O)N(C)[C@@H](C)C(=O)N[C@@H](CC(N)=O)C(=O)N2CCC[C@H]2C(=O)N[C@@H](CN)C(=O)N[C@@H](CC(C)C)C(=O)N2C[C@H](O)C[C@H]2C(=O)N[C@@H](Cc2c[nH]c3ccccc23)C(=O)N[C@@H](CO)C(=O)N[C@@H](Cc2c[nH]c3ccccc23)C(=O)N1C [Example 5063] ({CH2CO}-Y[NMeA]NP[Dap]L[Hyp]WSW[NMeNle][NMeNle][Dap]CG-NH2; thioether N-14)		0.385 to 6.74	0.158 to 4.71
CCCC[C@H]1C(=O)N(C)[C@@H](CCCC)C(=O)N[C@@H](C)C(=O)N[C@H](C(=O)NCC(=O)O)CSCC(=O)N[C@@H](Cc2ccc(O)cc2)C(=O)N(C)[C@@H](C)C(=O)N[C@@H](CC(N)=O)C(=O)N2CCC[C@H]2C(=O)N[C@@H](Cc2cnc[nH]2)C(=O)N[C@@H](CC(C)C)C(=O)N[C@@H](CCN)C(=O)N[C@@H](Cc2c[nH]c3ccccc23)C(=O)N[C@@H](CO)C(=O)N[C@@H](Cc2c[nH]c3ccccc23)C(=O)N1C [Example 1229]	4.78 to 72.9	6.76 to 30.3	
CCCC[C@H]1C(=O)N(C)[C@@H](CCCC)C(=O)NC(CCCNC(=N)N)C(=O)N[C@H](C(=O)NCC(N)=O)CSCC(=O)N[C@@H](Cc2ccc(O)cc2)C(=O)N(C)[C@@H](C)C(=O)N[C@@H](CC(N)=O)C(=O)N2CCC[C@H]2C(=O)N[C@@H](CN)C(=O)N[C@@H](CC(C)C)C(=O)N2C[C@H](O)C[C@H]2C(=O)N[C@@H](Cc2c[nH]c3ccccc23)C(=O)N[C@@H](CO)C(=O)N[C@@H](Cc2c(-c3ccc(OCC)cc3)[nH]c3ccccc23)C(=O)N1C (stereo partly shown) [Example 7009] ({CH2CO}-Y[NMeA]NP[Dap]L[Hyp]WS[X2][NMeNle][NMeNle][ξR]CG-NH2; thioether N-14)		0.385 to 6.74	0.158 to 4.71
CCCC[C@H]1C(=O)N(C)[C@@H](CCCC)C(=O)N[C@@H](C)C(=O)N[C@H](C(=O)NCC(N)=O)CSCC(=O)N[C@@H](Cc2ccc(O)cc2)C(=O)N(C)[C@@H](C)C(=O)N[C@@H](CC(=O)O)C(=O)N2CCC[C@H]2C(=O)N[C@@H](Cc2c[nH]cn2)C(=O)N[C@@H](CCC(=O)O)C(=O)N2C[C@H](F)C[C@H]2C(=O)N[C@@H](Cc2c[nH]c3ccccc23)C(=O)N[C@@H](CCN)C(=O)N[C@@H](Cc2c[nH]c3ccccc23)C(=O)N1C [Example 13002] ({CH2CO}-Y[NMeA]DPHE[Pro(trans-4-F)]W[Dab]W[NMeNle][NMeNle]ACG-NH2; thioether N-14)		0.385 to 6.74	0.158 to 4.71
CCCC[C@H]1C(=O)N(C)[C@@H](CCCC)C(=O)N[C@@H](C)C(=O)N[C@H](C(=O)NCC(N)=O)CSCC(=O)N[C@@H](Cc2ccc(O)cc2)C(=O)N(C)[C@@H](C)C(=O)N[C@@H](CC(N)=O)C(=O)N2CCC[C@H]2C(=O)N[C@@H](CN)C(=O)N[C@@H](CCC(=O)O)C(=O)N2C[C@H](O)C[C@H]2C(=O)N[C@@H](Cc2c[nH]c3ccccc23)C(=O)N[C@@H](CCN)C(=O)N[C@@H](Cc2c[nH]c3ccccc23)C(=O)N1C [Example 5040] ({CH2CO}-Y[NMeA]NP[Dap]E[Hyp]W[Dab]W[NMeNle][NMeNle]ACG-NH2; thioether N-14)		6.76 to 30.3	0.158 to 4.71
CCCC[C@H]1C(=O)N(C)[C@@H](COCC)C(=O)N[C@@H](CCCNC(=N)N)C(=O)NC(C(=O)NCC(N)=O)CSCC(=O)N[C@@H](Cc2ccc(O)cc2)C(=O)N(C)[C@@H](C)C(=O)N[C@@H](CC(N)=O)C(=O)N2CCC[C@H]2C(=O)N[C@@H](Cc2cnc[nH]2)C(=O)N[C@@H](CC(C)C)C(=O)N2CCC[C@H]2C(=O)N[C@@H](Cc2c[nH]c3ccccc23)C(=O)N[C@@H](CO)C(=O)N[C@@H](Cc2c[nH]c3ccccc23)C(=O)N1C (stereo partly shown) [Example 9041] ({CH2CO}-Y[NMeA]NPHLPWSW[NMeNle][NMeS](Et)R[ξC]G-NH2; thioether N-14)		0.385 to 6.74	0.158 to 4.71
CCCC[C@H]1C(=O)N[C@@H](CCCNC(=N)N)C(=O)NC(C(=O)NCC(N)=O)CSCC(=O)N[C@@H](Cc2ccc(O)cc2)C(=O)N(C)[C@@H](C)C(=O)N[C@@H](CC(N)=O)C(=O)N2CCC[C@H]2C(=O)N[C@@H](Cc2cnc[nH]2)C(=O)N[C@@H](CO)C(=O)N2CCC[C@H]2C(=O)N[C@@H](Cc2c[nH]c3ccccc23)C(=O)N[C@@H](CO)C(=O)N[C@@H](Cc2csc3ccccc23)C(=O)N(C)[C@@H](CCSC)C(=O)N1C (stereo partly shown) [Example 9112] ({CH2CO}-Y[NMeA]NPHSPWS[Bta][NMeM][NMeNle]R[ξC]G-NH2; thioether N-14)		0.385 to 6.74	4.78 to 72.9
CCCC[C@H]1C(=O)N2C[C@H](O)C[C@@H]2C(=O)N[C@@H](CC(N)=O)C(=O)N[C@@H](C(C)C)C(=O)N(C)[C@@H](Cc2ccccc2)C(=O)N[C@@H](CCC(=O)O)C(=O)N2CCOC[C@@H]2C(=O)N[C@@H](Cc2c[nH]c3ccccc23)C(=O)N[C@@H](Cc2ccc(O)cc2)C(=O)N[C@@H](CCCN)C(=O)N[C@H](C(=O)NCC(N)=O)CSCC(=O)N[C@@H](Cc2cc(F)c(F)c(F)c2)C(=O)N(C)[C@@H](Cc2ccccc2)C(=O)N1C [Example 3608] ({CH2CO}-[Phe(3,4,5-F3)][NMeF][NMeNle][d(cisHyp)]NV[NMeF]E[X4]WY[Orn]CG-NH2; thioether N-13)		0.385 to 6.74	0.158 to 4.71
